The values that follow come from patent US11266624B2, “CRM1 inhibitors reduce primary and acquired resistance of EGFR inhibitors in lung cancer cells” (Texas Tech University System, priority 2018, dated 2022).

Where two headings read alike, the source gives them in different places. Marks after values point to notes of the source that are not given here.

The subject of series [1] is snail-transduced primary human mammary epithelial cells (HEMCs). The note with it: 24-72 hrs treatment; cited from earlier work.
Series [2] relates to NSCLC cells. Conditions: cited from earlier work.
Series [3] relates to NSCLC cells. The note with it: cited from earlier work. The source holds these as a separate data set.
Series [4] relates to A549. The note with it: A549, KRAS-mutant NSCLC cell line; cited from earlier work.
The next series concerns H460. Kind of series: MTT cell viability assay in H460. Conditions: 0.5 nM LMB. The source says: (§1) Cell lines and reagents. The NSCLC cell lines A549 and H460 were purchased from American Type Culture Collection (ATCC).
(§2) Cell viability assay. […] Experiments were repeated independently three times.
(§3) Statistical analyses. […] One-way ANOVA was used to determine the difference in the analytical results of flow cytometry, qRT-PCR, Western bot, wound healing assay, anchorage-independent growth assay, transwell invasion assay, and Bio-Plex multiplex immunoassay among groups followed by a Fisher's LSD test. Differences with p<0.05 were considered statistically significant.
(In general: Formazan colour is commonly taken as a measure of viable cells.)

The test system of the next series is H522. The note with it: H522 (p53-mutant); read-out: LMB IC50; cited from earlier work.
The test system of series [5] is A549. In words: Analysis of cell cycle by flow cytometry in A549. It counts as cell-based, human. Conditions: 48 hrs. From the text:
Analysis of cell cycle by flow cytometry. […] Each sample was run in triplicate and each experiment was repeated three times.
On the technique in general: Flow cytometry measures light scatter and fluorescence of single cells or particles in a stream.

The conditions of series [6]: single therapeutic agent; cited from earlier work.
In series [7] the test system is A549. Conditions: A549 (p53 wide type), 48 hrs; read-out: LMB IC50; cited from earlier work.
The subject of series [8] is A549. In words: Western blot of EGFR signaling and survival pathways in A549. It counts as cell-based, human. How it is done:
Western blot analyses. […] Relative densitometric digital analysis for bands of targeted proteins was determined using Image J and normalized by the intensity of the housekeeping gene, α-tubulin.

The next series deals with A549GLR. Kind of series: cells.
Source text: as §1, §2, §3

For another series, the system named is A549GR. Kind of series: cells.
Source text: as §1, §2, §3

Series [9] has as its system A549. Kind of series: cells.
Source text: as §1, §2, §3

Series [10] has as its system NSCLC cell lines (A549, H522, and H358) and BEAS-2B. The note with it: A549, H522, H358 vs BEAS-2B; cited from earlier work.
A further series relates to H358. The note with it: H358 (p53 null); read-out: LMB IC50; cited from earlier work.
[11] abbreviates: Homo sapiens, A549, read-out: IC50 of afatinib.
Setting [12] is: 12 μM gefitinib (alone or + 0.5 nM LMB).
Where [13] appears, read: 24 μM gefitinib (alone or + 0.5 nM LMB).

In the case of `COc1cc(-c2ncn(/C=C\C(=O)OC(C)C)n2)cc(C(F)(F)F)c1` [KPT-185], in [1], the “Effect on EMT” value is on record as “reverse EMT”. Further, the “Synergistic cytotoxic effects with EGFR TKIs” value in the series on NSCLC cells [2] is on record as “no synergistic cytotoxic effects”. The Cell cycle arrest entry with NSCLC cells [3] is “arrested NSCLC cells in the G1 phase”. Also, in the series on A549 [4], the “Response of A549 to treatment” value is recorded as “not responsive”.

As to `O=C(/C=C\n1cnc(-c2cc(C(F)(F)F)cc(C(F)(F)F)c2)n1)NNc1cnccn1` [KPT-330, Selinexor], the “Effect on EMT” value in series [1] is reported as “reverse EMT”. The “Response of A549 to treatment” value in the series on A549 [4] is on record as “not responsive”.

In general, IC50 refers to the concentration at which inhibition is half-maximal. In the case of `CCC(=C/[C@H](C)C/C=C/C(C)=C/[C@@H](C)C(=O)[C@@H](C)[C@H](O)[C@@H](C)C/C(C)=C/C(=O)O)/C=C/[C@@H]1OC(=O)C=C[C@@H]1C` [LMB, Leptomycin B], the “Cytotoxic effect (cell viability)” value with H460 is 92±5 % of control; in the series on A549GLR, 88±5 % of control; in the series on A549GR it was 96±3 % of control; in the series on A549 [9] it was 89±4 % of control. In series [1], the “Effect on EMT” value is “reverse EMT”. Also, the figures for the IC50 in the series on H522, in the series with A549 [7] and in the series with H358 were 0.0057 µM, 0.0131 µM and 0.0005 µM, respectively. In addition, the “Cell cycle (%) G0/G1” value in the series on A549 [5] (0.5 nM LMB alone) is listed as 57.9 ± 3.1 ^b %. Moreover, in the series on A549 [5] (0.5 nM LMB alone), the “Cell cycle (%) G2/M” value is recorded as 24.4 ± 0.6 ^b %. In addition, the “Cell cycle (%) Pre-G1” value in the series with A549 [5] (0.5 nM LMB alone) is reported as 13.5 ± 2.7 ^b %. Further, the “Cell cycle (%) S” value in the series on A549 [5] (0.5 nM LMB alone) is listed as 3.6 ± 1.2 ^b %. The “Toxicities in phase I trial” value in [6] was “gastrointestinal toxicities like malaise and anorexia”. The “Relative protein expression level of Akt” value with A549 [8] (0.5 nM LMB alone, 48 hrs, A549, control 100.0±0) is listed as 86±2. Further, the p21 expression result with A549 [8] (A549, 48 hrs, LMB vs control, gefitinib+LMB vs gefitinib alone) was “dramatically increased”. For the same compound, in series [10], the “Cell growth inhibition, cancer vs normal cells” value was “remarkable cell growth inhibition in NSCLC cell lines (A549, H522, and H358) but not normal human lung epithelial cells (BEAS-2B)”.

Turning to `CN(C)C/C=C/C(=O)Nc1cc2c(Nc3ccc(F)c(Cl)c3)ncnc2cc1O[C@H]1CCOC1` [afatinib], the IC50 came out at 8 ± 1.5 µM in the series on A549GLR (setting [11]), 20 ± 2.7 µM in the series with A549GR (setting [11]) and 6 ± 1.2 µM in the series on A549 [9] (setting [11]).

With `COc1cc2ncnc(Nc3ccc(F)c(Cl)c3)c2cc1OCCCN1CCOCC1` [gefitinib], in the series on A549 [5] (setting [12]), the “Cell cycle (%) G0/G1” value was 68.0 ± 2.9 ^a %, the “Cell cycle (%) G2/M” value is 19.9 ± 2.2 ^a %, the “Cell cycle (%) Pre-G1” value was 2.1 ± 0.4 ^a % and the “Cell cycle (%) S” value is on record as 9.7 ± 2.4 ^a %. In the series with A549 [5] (setting [13]), the “Cell cycle (%) G0/G1” value is 84.0 ± 0.9 ^b %, the “Cell cycle (%) G2/M” value is recorded as 7.9 ± 0.6 ^b %, the “Cell cycle (%) Pre-G1” value was 4.0 ± 1.3 ^b % and the “Cell cycle (%) S” value was 3.4 ± 0.3 ^b %.
